Data reported in patent US6525001B1, “Substituted pyrimidine and pyridine herbicides” (Mid-American Commercialization Corporation, priority 1997, dated 2003).

Legend:
Assay type in all cases: in vivo
[1] = test system: barnyardgrass (Echinochloa crus-galli); test: Test A pre-/postemergence; parameters: key: 0 is no effect; 10 is complete control; conditions: 0 to 10 scale
[2] = test system: crabgrass (Digitaria spp.); test: Test A pre-/postemergence; parameters: key: 0 is no effect; 10 is complete control; conditions: 0 to 10 scale
[3] = test system: velvetleaf (Abutilon theophrasti); test: Test A pre-/postemergence; parameters: key: 0 is no effect; 10 is complete control; conditions: 0 to 10 scale
[4] = test system: common ragweed (Ambrosia elatior); test: Test E pre-/postemergence/post directed; parameters: key: 0 is no effect; 100 is complete control; conditions: PREEMERGENCE
Procedure, shortened: (§1)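 Injury scored visually on a 0–100 scale (100 = complete control) 13 to 21 days after treatment. Test chemicals, formulated with surfactant in non-phytotoxic solvent, were applied to soil within one day of planting, to plants at two to four leaves (three to twenty cm), or as directed spray at plant base.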

[5] = test system: large crabgrass (Digitaria sanguinalis); test: Test E pre-/postemergence/post directed; parameters: key: 0 is no effect; 100 is complete control; conditions: PREEMERGENCE
Procedure, shortened: as §1

[6] = test system: dallisgrass (Paspalum dilatatum); test: Test E pre-/postemergence/post directed; parameters: key: 0 is no effect; 100 is complete control
Procedure, shortened: as §1

[7] = test system: sourgrass (Trichachne insularis); test: Test E pre-/postemergence/post directed; parameters: key: 0 is no effect; 100 is complete control
Procedure, shortened: as §1

[8] = test system: guineagrass (Panicum maximum); test: Test E pre-/postemergence/post directed; parameters: key: 0 is no effect; 100 is complete control
Procedure, shortened: as §1

[9] = test system: bermudagrass (Cynodon dactylon); test: Test E pre-/postemergence/post directed; parameters: key: 0 is no effect; 100 is complete control; conditions: PREEMERGENCE
Procedure, shortened: as §1

[10] = test system: goosegrass (Eleusine indica); test: Test E pre-/postemergence/post directed; parameters: key: 0 is no effect; 100 is complete control
Procedure, shortened: as §1

[11] = test system: tall mallow (Malva sylvestris); test: Test E pre-/postemergence/post directed; parameters: key: 0 is no effect; 100 is complete control; conditions: PREEMERGENCE
Procedure, shortened: as §1

[12] = test system: common purslane (Portulaca oleracea); test: Test E pre-/postemergence/post directed; parameters: key: 0 is no effect; 100 is complete control
Procedure, shortened: as §1

[13] = test system: surinam grass (Brachiaria decumbens); test: Test E pre-/postemergence/post directed; parameters: key: 0 is no effect; 100 is complete control; conditions: PREEMERGENCE, Rate 250 g/ha
Procedure, shortened: as §1

[14] = test system: common groundsel (Senecio vulgaris); test: Test E pre-/postemergence/post directed; parameters: key: 0 is no effect; 100 is complete control; conditions: PREEMERGENCE
Procedure, shortened: as §1

[15] = test system: large crabgrass (Digitaria sanguinalis); test: Test C; parameters: key: 0 was no effect; 100 was complete control; conditions: PREEMERGENCE
[16] = test system: arrowleaf sida (Sida rhombifolia); test: Test C; parameters: key: 0 was no effect; 100 was complete control; conditions: PREEMERGENCE
[17] = PRE SOIL DRENCH, Rate 2000 g/ha
[18] = postemergence SPRAYED TO RUNOFF, Rate 1000 g/ha

Cc1cnc(-c2ccc(C(F)(F)F)cc2)nc1Cc1cccc(C(F)(F)F)c1 [Example 1, 5-methyl-2-[4-(trifluoromethyl)phenyl]-4-[[3-(trifluoromethyl)phenyl]methyl]pyrimidine]
Plant response rating, Barnyardgrass [1, 17]: 10 | Plant response rating, Barnyardgrass [1, 18]: 9 | Plant response rating, Crabgrass [2, 17]: 10 | Plant response rating, Crabgrass [2, 18]: 9 | Plant response rating, Velvetleaf [3, 17]: 9 | Plant response rating, Velvetleaf [3, 18]: 9 | Plant response rating, Com. ragweed ([4]; Rate 64 g/ha): 100 | Plant response rating, Com. ragweed ([4]; Rate 125 g/ha): 100 | Plant response rating, Com. ragweed ([4]; Rate 250 g/ha): 100 | Plant response rating, Large crabgrass ([5]; Rate 32 g/ha): 100 | Plant response rating, Large crabgrass ([5]; Rate 64 g/ha): 100 | Plant response rating, Large crabgrass ([5]; Rate 125 g/ha): 100 | Plant response rating, Large crabgrass ([5]; Rate 250 g/ha): 100 | Plant response rating, Dallisgrass ([6]; POSTEMERGENCE, Rate 250 g/ha): 90 | Plant response rating, Dallisgrass ([6]; PREEMERGENCE, Rate 32 g/ha): 98 | Plant response rating, Dallisgrass ([6]; PREEMERGENCE, Rate 64 g/ha): 100 | Plant response rating, Dallisgrass ([6]; PREEMERGENCE, Rate 125 g/ha): 100 | Plant response rating, Dallisgrass ([6]; PREEMERGENCE, Rate 250 g/ha): 100 | Plant response rating, Sourgrass ([7]; POSTEMERGENCE, Rate 250 g/ha): 30 | Plant response rating, Sourgrass ([7]; PREEMERGENCE, Rate 32 g/ha): 100 | Plant response rating, Sourgrass ([7]; PREEMERGENCE, Rate 64 g/ha): 100 | Plant response rating, Sourgrass ([7]; PREEMERGENCE, Rate 125 g/ha): 100 | Plant response rating, Sourgrass ([7]; PREEMERGENCE, Rate 250 g/ha): 100 | Plant response rating, Guineagrass ([8]; POSTEMERGENCE, Rate 250 g/ha): 70 | Plant response rating, Guineagrass ([8]; PREEMERGENCE, Rate 32 g/ha): 90 | Plant response rating, Guineagrass ([8]; PREEMERGENCE, Rate 64 g/ha): 100 | Plant response rating, Guineagrass ([8]; PREEMERGENCE, Rate 125 g/ha): 100 | Plant response rating, Guineagrass ([8]; PREEMERGENCE, Rate 250 g/ha): 100 | Plant response rating, Bermudagrass ([9]; Rate 32 g/ha): 100 | Plant response rating, Bermudagrass ([9]; Rate 64 g/ha): 100 | Plant response rating, Bermudagrass ([9]; Rate 125 g/ha): 100 | Plant response rating, Bermudagrass ([9]; Rate 250 g/ha): 100 | Plant response rating, Goosegrass ([10]; POSTEMERGENCE, Rate 250 g/ha): 70 | Plant response rating, Goosegrass ([10]; PREEMERGENCE, Rate 32 g/ha): 100 | Plant response rating, Goosegrass ([10]; PREEMERGENCE, Rate 64 g/ha): 100 | Plant response rating, Goosegrass ([10]; PREEMERGENCE, Rate 125 g/ha): 100 | Plant response rating, Goosegrass ([10]; PREEMERGENCE, Rate 250 g/ha): 100 | Plant response rating, Tall Mallow ([11]; Rate 32 g/ha): 100 | Plant response rating, Tall Mallow ([11]; Rate 64 g/ha): 100 | Plant response rating, Tall Mallow ([11]; Rate 125 g/ha): 100 | Plant response rating, Tall Mallow ([11]; Rate 250 g/ha): 100 | Plant response rating, Com. purslane ([12]; POSTEMERGENCE, Rate 250 g/ha): 40 | Plant response rating, Com. purslane ([12]; PREEMERGENCE, Rate 32 g/ha): 98 | Plant response rating, Com. purslane ([12]; PREEMERGENCE, Rate 64 g/ha): 100 | Plant response rating, Com. purslane ([12]; PREEMERGENCE, Rate 125 g/ha): 100 | Plant response rating, Com. purslane ([12]; PREEMERGENCE, Rate 250 g/ha): 100 | Plant response rating, Surinam grass [13]: 100 | Plant response rating, Com. groundsel ([14]; Rate 64 g/ha): 100 | Plant response rating, Com. groundsel ([14]; Rate 125 g/ha): 100 | Plant response rating, Com. groundsel ([14]; Rate 250 g/ha): 100 | Plant response rating, Large crabgrass ([15]; Rate 35 g/ha): 100 | Plant response rating, Large crabgrass ([15]; Rate 70 g/ha): 100 | Plant response rating, Large crabgrass ([15]; Rate 140 g/ha): 100 | Plant response rating, Arrowleaf sida ([16]; Rate 35 g/ha): 85 | Plant response rating, Arrowleaf sida ([16]; Rate 70 g/ha): 95 | Plant response rating, Arrowleaf sida ([16]; Rate 140 g/ha): 100
